Experimental data from patent US4185089A, “Immunological adjuvant constituted by the p-amino-phenyl derivative of N-acetyl-muramyl-L-alanyl-D-isoglutamine” (Agence Nationale de Valorisation de la Recherche (ANVAR), priority 1976, dated 1980).
“And” between values parts separate entries of the source, which are not always exact repeats. Identical values can stand only once.

Columns and labels:
[1] = tested on: rabbits; experiment: Pyrogenicity on rabbits (French Pharmacopea protocol); format: in vivo; settings: for Rise in temperature °C.: individual animals (batch of three), listed as product according to the invention
Description: The pyrogenic effect of the product according to the invention on rabbits was studied, following the protocol of the French Pharmacopea, 9e edition, II-235. Each test was carried out on a batch of three rabbits. The administration was first done by the subcutaneous route, then by the intravenous route. The results of these tests, that is to say the increase in temperature in the treated animals, were as follows: […]

[2] = tested on: female Hartley guinea pigs; experiment: Adjuvant test in oily phase: delayed hypersensitivity cutaneous test to ovalbumin; format: in vivo, guinea pig
Description: (§1) The tests were carried out on female Hartley guinea pigs of 350 g. The administration was done by intradermal injection in the plantar pad of each of the rear paws. The ovalbumin (constituting the antigen) in the dose of 0.5 mg was prepared in 0.1 ml of an emulsion of saline isotonic solution, in an oily phase constituted either by the Freund incomplete adjuvant (FIA), or by the Freund complete adjuvant (FCA) formed by the FIA to which is added 0.1 mg of whole cells of Mycobacterium smegmatis. The compound according to the invention was administered in the dose of 0.1 mg added in the emulsion containing the FIA.
Eighteen days after this immunisation, possible reactions of delayed hypersensibility to the antigen were sought by injecting by the intradermal route 0.005 mg of ovalbumin into the side of the animals, and the reaction at the point of injection was observed 48 hours later. The diameter in mm of the thus provoked reaction was measured.

[3] = tested on: female Hartley guinea pigs; experiment: Adjuvant test in oily phase: specific serum antibody level to ovalbumin; format: in vivo, guinea pig
Description: In these tests, the growth of the specific antibody level of a given antigen when the latter is injected, with or without the adjuvant compound according to the invention, in the midst of a water and oil emulsion was followed.
as §1
Twenty one days after the injection, the animals were bled. On the serum collected, the specific antibody content of the ovalbumin was measured by precipitation of the antibody-antigen complex in the equivalence zone. The amount of protein nitrogen contained in this precipitate was evaluated according to the Folin method. These values express the amounts, in micrograms, of nitrogen precipitable by the antigen, per ml of serum.

[4] = tested on: mice; experiment: Toxicity by intravenous injection in mice; format: in vivo; settings: mice aged two months
From the text: The toxicity of the product according to the invention was studied by intravenous injection in mice aged two months.

Question: Which “Pyrogenicity (in words)” value ([1]; doses where adjuvant properties are manifested) does the source give for `CC(=O)NC1C(Oc2ccc(N)cc2)OC(CO)C(O)C1O[C@H](C)C(=O)N[C@@H](C)C(=O)N[C@H](CCC(=O)O)C(N)=O` (stereo partly drawn) [p-amino-phenyl-Mur-NAc-L-Ala-D-iso-Gln, 2-(p-amino-phenyl-2-acetamido-2-deoxy-3-O-D-glucopyranosyl)-D-propionyl-L-alanyl-D-isoglutamine] here?
Answer: apyrogenic

Question: What about the “Rise in temperature °C.” value ([1]; intravenous, 1.0 mg/kg) of the same compound?
Answer: 0 °C and 0.4 °C and 0.6 °C

Question: And the “Rise in temperature °C.” value ([1]; sub-cutaneous, 0.100 mg/kg, 0.1 mg/kg)?
Answer: 0 °C (2×) and 0.1 °C

Question: What about the “Rise in temperature °C.” value ([1]; sub-cutaneous, 0.500 mg/kg, 0.5 mg/kg) of the same compound?
Answer: 0 °C and 0.2 °C and 0.1 °C

Question: What about the “Delayed-type hypersensitivity reaction to the antigen (in words)” value ([2]; administered in oily emulsion) of the same compound?
Answer: induces a hypersensitivity reaction of the delayed type

Question: And the “Cutaneous test diameter in mm” value ([2]; guinea pigs, challenge 0.005 mg ovalbumin intradermal 18 days after immunisation, read 48 hours later, adjuvant 100 μg)?
Answer: 19.5±4.5 mm

Question: And the “Effect on level of antibodies to the administered antigen (in words)” value ([3]; administered in oily emulsion)?
Answer: distinctly facilitates the increase in the level of antibodies

Question: What about the “Seric antibodies (nitrogen precipitable by the antigen per ml of serum)” value ([3]; guinea pigs, ovalbumin 0.5 mg intradermal in water-in-oil emulsion, adjuvant 100 μg, serum 21 days after injection, average values) of the same compound?
Answer: 3500 µg/mL

Question: And the “lethal dose (LD50)” value [4]?
Answer: very much higher than that of the dosage at which the product manifests its adjuvant properties
